Columns and labels:
Adenosine, Non-selective = assay: NovaScreen assay; format: binding
Dopamine Transporter = biological target: T1, Dopamine Transporter (Homo sapiens, UniProt Q01959); assay: NovaScreen assay; format: binding
T1 construct: NovaScreen

GABA-B = biological target: T2, GABA-B (Homo sapiens, UniProt Q9UBS5); assay: NovaScreen assay; format: binding; details: read-out: Inhibition, 10 μM XL-647
T2 construct: NovaScreen

Sigma, Non-selective = assay: NovaScreen assay; format: binding
Calcium Channel, Type N = biological target: T3, Calcium Channel, Type N (Homo sapiens, UniProt Q00975); assay: NovaScreen assay; format: binding; details: read-out: Inhibition, 10 μM XL-647
T3 construct: NovaScreen

[1] = system: Potassium Channel, Ca2+ Act., VI; assay: NovaScreen assay; format: binding
Sodium, Site 2 = assay: NovaScreen assay; format: binding
Thromboxane A2 (Human) = biological target: T4, Thromboxane A2 (Human) (Homo sapiens, UniProt P21731); assay: NovaScreen assay; format: binding; details: read-out: Inhibition, 10 μM XL-647
T4 construct: NovaScreen

Angiotensin II, AT2 = biological target: T5, Angiotensin II, AT2 (Homo sapiens, UniProt P50052); assay: NovaScreen assay; format: binding; details: read-out: Inhibition, 10 μM XL-647
T5 construct: NovaScreen
T5 sequence (P50052 whole entry): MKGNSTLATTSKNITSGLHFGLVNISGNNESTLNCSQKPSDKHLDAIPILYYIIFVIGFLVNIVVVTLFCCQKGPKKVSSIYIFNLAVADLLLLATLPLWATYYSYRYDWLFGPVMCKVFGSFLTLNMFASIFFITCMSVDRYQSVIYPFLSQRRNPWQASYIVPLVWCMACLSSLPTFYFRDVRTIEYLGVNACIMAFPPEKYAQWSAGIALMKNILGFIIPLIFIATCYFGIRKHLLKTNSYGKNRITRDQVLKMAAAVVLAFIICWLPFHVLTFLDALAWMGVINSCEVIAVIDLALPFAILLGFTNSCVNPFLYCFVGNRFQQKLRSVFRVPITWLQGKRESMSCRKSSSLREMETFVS

Endothelin, ET-B (Human) = biological target: T6, Endothelin, ET-B (Human) (Homo sapiens, UniProt P24530); assay: NovaScreen assay; format: binding; details: read-out: Inhibition, 10 μM XL-647
T6 construct: NovaScreen

[2] = system: Vasoactive Intestinal Peptide, Non-selective; assay: NovaScreen assay; format: binding
Flt1 = Flt1 (Homo sapiens, UniProt P17948); assay: Radiometric kinase assay; format: biochemical
Flt1, sequence (P17948 27-1338): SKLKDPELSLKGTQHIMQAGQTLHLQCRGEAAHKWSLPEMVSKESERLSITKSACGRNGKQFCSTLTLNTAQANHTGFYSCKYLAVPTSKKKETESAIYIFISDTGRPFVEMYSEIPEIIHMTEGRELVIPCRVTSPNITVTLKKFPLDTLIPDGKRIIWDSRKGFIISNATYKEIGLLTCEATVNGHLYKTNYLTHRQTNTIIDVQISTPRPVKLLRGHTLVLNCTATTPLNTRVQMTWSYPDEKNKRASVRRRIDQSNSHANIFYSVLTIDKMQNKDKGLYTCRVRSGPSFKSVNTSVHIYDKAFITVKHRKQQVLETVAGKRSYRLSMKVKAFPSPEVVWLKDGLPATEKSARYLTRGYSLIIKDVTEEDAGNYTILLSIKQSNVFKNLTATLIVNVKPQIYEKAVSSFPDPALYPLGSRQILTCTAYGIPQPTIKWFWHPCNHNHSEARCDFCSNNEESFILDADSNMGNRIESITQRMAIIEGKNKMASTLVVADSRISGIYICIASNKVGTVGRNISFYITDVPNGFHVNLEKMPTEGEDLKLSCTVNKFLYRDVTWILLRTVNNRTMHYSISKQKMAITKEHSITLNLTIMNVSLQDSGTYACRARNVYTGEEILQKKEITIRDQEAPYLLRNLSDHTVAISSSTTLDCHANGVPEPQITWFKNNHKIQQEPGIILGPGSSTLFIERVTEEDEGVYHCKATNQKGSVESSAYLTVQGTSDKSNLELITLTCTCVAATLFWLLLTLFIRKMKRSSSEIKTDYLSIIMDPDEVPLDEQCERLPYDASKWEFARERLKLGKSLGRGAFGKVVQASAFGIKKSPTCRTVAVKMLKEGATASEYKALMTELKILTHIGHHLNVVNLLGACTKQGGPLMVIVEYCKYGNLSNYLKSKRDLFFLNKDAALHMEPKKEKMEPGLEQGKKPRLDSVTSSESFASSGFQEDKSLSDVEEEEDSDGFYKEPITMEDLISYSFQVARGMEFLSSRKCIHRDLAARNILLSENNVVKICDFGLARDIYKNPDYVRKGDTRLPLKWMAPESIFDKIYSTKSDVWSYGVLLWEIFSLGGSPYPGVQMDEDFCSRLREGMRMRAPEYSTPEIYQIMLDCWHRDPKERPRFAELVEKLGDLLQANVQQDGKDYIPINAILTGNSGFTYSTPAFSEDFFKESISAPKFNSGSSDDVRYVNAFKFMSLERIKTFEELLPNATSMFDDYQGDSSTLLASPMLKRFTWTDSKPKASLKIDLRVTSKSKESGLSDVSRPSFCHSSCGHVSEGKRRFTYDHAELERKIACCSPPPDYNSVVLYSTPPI
Experimental: (§1) A radiometric ^33P-Phosphoryl transfer kinase assay was used to measure EphB4, insulin-like growth factor-I receptor (IGFR-1), and insulin receptor (IRK) activity. Reactions were performed in 384-well white, clear bottom, high-binding microtiter plates (Greiner). Plates were coated with 2 μg/well peptide substrate in a 50 μL volume. […] The coated plates were washed once with 50 μL assay buffer following overnight incubation at room temperature. Test compound and either 5 nmol/L EphB4 (residues E605-E890 of human EphB4 containing a six histidine NH2-terminal tag, expressed in a baculovirus expression system and purified using metal chelate chromatography), 4 nmol/L insulin-like growth factor-I receptor (residues M954-C1367 of human insulin-like growth factor-I receptor, Proqinase GmbH), or 15 nmol/L insulin receptor 1 (residues P948-S1343 of human insulin receptor 1, Proqinase) were combined with [^33P]g-ATP (5 μmol/L, 3.3 μCi/nmol) in a total volume of 20 μL. The reaction mixture was incubated at room temperature for 1.5 to 2.5 h and terminated by aspiration. The microtiter plates were subsequently washed six times with 0.05% Tween-PBS buffer. Scintillation fluid (50 μL/well) was added and incorporated ^33P was measured by liquid scintillation spectrometry using a MicroBeta scintillation counter (Perkin-Elmer). […]

Tie-2 = Tie-2 (Homo sapiens, UniProt Q02763); assay: Radiometric kinase assay; format: biochemical
Tie-2, sequence (Q02763 23-1124): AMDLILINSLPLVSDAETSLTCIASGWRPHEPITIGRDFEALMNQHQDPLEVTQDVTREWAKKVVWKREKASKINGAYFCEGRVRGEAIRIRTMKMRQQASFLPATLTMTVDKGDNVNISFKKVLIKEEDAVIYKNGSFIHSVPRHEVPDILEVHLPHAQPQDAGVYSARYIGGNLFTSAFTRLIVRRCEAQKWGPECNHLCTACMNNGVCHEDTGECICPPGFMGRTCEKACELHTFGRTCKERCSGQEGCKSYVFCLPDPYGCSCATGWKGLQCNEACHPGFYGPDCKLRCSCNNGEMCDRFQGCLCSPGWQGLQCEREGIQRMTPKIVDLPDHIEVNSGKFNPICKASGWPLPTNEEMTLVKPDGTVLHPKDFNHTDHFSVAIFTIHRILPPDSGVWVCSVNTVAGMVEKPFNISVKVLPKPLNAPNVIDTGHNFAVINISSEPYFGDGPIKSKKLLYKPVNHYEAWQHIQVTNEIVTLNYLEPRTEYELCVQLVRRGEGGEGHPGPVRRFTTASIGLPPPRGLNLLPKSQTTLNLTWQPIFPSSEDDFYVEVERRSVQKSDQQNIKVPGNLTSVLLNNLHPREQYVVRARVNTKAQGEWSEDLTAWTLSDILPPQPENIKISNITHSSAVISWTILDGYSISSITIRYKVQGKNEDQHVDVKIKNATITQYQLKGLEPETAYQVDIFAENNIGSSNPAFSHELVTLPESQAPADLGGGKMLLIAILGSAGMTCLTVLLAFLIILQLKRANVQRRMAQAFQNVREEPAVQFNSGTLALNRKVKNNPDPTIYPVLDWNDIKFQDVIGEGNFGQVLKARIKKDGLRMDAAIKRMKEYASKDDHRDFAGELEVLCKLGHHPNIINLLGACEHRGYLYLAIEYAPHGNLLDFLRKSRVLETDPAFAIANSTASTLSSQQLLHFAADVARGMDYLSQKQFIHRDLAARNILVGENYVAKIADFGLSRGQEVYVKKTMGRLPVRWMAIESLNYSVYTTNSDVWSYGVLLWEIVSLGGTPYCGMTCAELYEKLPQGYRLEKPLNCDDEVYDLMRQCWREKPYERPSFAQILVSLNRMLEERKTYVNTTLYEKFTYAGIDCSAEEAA
Experimental: as §1

EphB4 = biological target: T7, EphB4 (Homo sapiens, UniProt P54760); assay: EphB4 autophosphorylation ELISA, EphB4/Hep3B cells; format: cell-based; details: read-out: Cellular IC50, autophosphorylation
T7 construct: expressed in transfected cells; host or cells: Hep3B
Experimental: The EphB4 autophosphorylation ELISA utilized EphB4/Hep3B cells. Cells were seeded at 2×10^4 cells/well onto 96-well microtiter plates (Costar 3904), in MEME (Cellgro) containing 10% FBS (Heat-Inactivated, Hyclone), 1% penicillin-streptomycin (Cellgro) and 450 μg/ml G418 (Invitrogen). The cells were then incubated at 37° C., 5% CO2 for 24 h. Growth media was replaced with serum-free MEME and cells were incubated for an additional 16 h. […] Negative control wells were not treated with growth factor. Following treatment, media was removed, the cell monolayer washed with cold PBS and immediately lysed with cold lysis buffer (50 mM Tris-HCl, pH 8.0, 200 mM NaCl, 0.5% NP-40, 0.2% sodium deoxcholate, 1 mM EDTA, 50 mM NaF, 1 mM sodium pyrophosphate, 1 mM sodium orthovanadate, 2 mM phenylmethylsulfonyl fluoride, 10 μg/ml aprotinin, 5 μg/ml leupeptin and 5 μg/ml pepstatin A). Lysates were centrifuged and incubated in blocked (1% BSA) high-binding 96-well plates (Costar 3925) coated with anti-mouse EphB4 (2.5 μg/ml, R&D Systems). Plates were then incubated with HRP-conjugated anti-phosphotyrosine cocktail (1:10,000, Zymed Laboratories, Inc) followed by the addition of a luminol-based substrate solution. Plates were read using a Victor spectrophotometer (Wallac).

ErbB2 = ErbB2 (Homo sapiens, UniProt P04626); assay: ErbB2 autophosphorylation ELISA, BT474 cells; format: cell-based; details: read-out: Cellular IC50, autophosphorylation
Experimental: The ErbB2 autophosphorylation ELISA utilized BT474 (ATCC) cells. Cells were seeded at 3×10^4 cells/well into 96-well microtiter plates (Costar 3904), in 1:1(DMEM:F12K) (Cellgro) containing 10% FBS (Heat-Inactivated, Hyclone), 1% penicillin-streptomycin (Cellgro), 1% NEAA solution (Cellgro), and 2% L-Glutamine (Cellgro). The cells were then incubated at 37° C., 5% CO2 for 40 hr. […] Following treatment, media was removed, the cell monolayer was washed with cold PBS and immediately lysed with cold lysis buffer. Lysates were centrifuged and transferred into blocked (1% BSA) 96-well high-binding plates (Costar 3925) coated with rabbit polyclonal anti-ErbB2 (1.3 μg/ml, Cell Signaling Technology). Plates were then incubated with HRP-conjugated, anti-phosphotyrosine cocktail (1:10,000, Zymed Laboratories, Inc), followed by the addition of a luminol-based substrate solution. Plates were read with a Victor spectrophotometer (Wallac). IC50 values were determined based on total ErbB2 tyrosine phosphorylation with compound treatment versus total ErbB2 tyrosine phosphorylation with no compound treatment.

[3] = human, in vivo
Experimental: Food effect on bioavailability was analyzed.

[4] = system: subjects with relapsed or recurrent NSCLC; assay: Clinical Study XL-647-203 (Phase 2, relapsed or recurrent NSCLC); format: in vivo, human; details: n=41
Text: Study XL-647-203: Subjects (n=41) with relapsed or recurrent NSCLC (Stage IIIB or IV) with documented progressive disease after benefit from single agent treatment with erlotinib or gefitinib or with a known EGFR T790M mutation were enrolled.

CYP2D6 = CYP2D6 (Homo sapiens, UniProt P10635)
CYP2D6, sequence (P10635 whole entry): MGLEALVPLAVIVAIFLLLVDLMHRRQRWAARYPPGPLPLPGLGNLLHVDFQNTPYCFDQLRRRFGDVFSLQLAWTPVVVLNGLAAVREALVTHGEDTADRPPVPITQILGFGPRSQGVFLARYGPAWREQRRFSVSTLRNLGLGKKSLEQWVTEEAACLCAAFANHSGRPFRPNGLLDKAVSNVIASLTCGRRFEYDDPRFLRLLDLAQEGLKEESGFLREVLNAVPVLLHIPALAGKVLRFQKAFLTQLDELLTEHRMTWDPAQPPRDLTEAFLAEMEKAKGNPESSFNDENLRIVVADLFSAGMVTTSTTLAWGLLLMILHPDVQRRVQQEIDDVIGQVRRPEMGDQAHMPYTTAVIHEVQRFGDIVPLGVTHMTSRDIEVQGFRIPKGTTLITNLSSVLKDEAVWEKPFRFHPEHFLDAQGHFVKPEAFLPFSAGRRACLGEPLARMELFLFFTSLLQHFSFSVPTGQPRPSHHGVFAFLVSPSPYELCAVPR

EGFR WT (pCMV/Lx-1) = EGFR WT (pCMV/Lx-1) (Homo sapiens, UniProt P00533); assay: EGFR phosphorylation ELISA in transfected Lx-1 cells
EGFR WT (pCMV/Lx-1), sequence (P00533 25-1210): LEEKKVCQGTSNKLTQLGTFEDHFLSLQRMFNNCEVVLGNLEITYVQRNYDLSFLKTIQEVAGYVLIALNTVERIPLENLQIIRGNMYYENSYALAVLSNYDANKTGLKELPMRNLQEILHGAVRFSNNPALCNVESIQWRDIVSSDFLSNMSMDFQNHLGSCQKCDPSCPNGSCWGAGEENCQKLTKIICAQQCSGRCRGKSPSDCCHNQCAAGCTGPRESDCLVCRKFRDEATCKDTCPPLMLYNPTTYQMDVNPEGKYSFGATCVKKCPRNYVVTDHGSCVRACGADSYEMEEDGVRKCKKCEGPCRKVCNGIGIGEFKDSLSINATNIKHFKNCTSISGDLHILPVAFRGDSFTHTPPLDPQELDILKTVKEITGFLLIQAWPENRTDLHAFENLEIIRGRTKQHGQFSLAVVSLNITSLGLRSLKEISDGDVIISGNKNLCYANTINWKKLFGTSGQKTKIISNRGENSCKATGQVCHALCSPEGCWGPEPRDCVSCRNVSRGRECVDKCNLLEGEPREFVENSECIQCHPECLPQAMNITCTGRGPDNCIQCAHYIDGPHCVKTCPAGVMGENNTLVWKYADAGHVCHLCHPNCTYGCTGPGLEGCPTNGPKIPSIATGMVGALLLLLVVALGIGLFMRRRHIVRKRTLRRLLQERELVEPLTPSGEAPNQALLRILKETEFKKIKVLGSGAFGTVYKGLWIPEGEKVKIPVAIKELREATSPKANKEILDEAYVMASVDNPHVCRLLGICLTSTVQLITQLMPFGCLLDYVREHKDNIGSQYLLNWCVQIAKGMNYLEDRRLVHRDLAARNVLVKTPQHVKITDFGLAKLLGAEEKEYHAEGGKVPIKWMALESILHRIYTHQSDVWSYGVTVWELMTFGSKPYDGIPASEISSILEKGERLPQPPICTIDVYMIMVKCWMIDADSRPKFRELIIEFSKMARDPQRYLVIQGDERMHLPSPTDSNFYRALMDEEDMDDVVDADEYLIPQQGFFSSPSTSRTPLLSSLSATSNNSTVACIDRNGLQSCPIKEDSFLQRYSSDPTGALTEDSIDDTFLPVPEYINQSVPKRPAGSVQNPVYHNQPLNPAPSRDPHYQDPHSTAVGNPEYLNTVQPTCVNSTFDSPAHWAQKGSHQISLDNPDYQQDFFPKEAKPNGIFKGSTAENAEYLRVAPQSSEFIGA
Text: (§2) Lx-1 cells were used because they lack background EGFR activity. A clone corresponding to the longest EGFR isoform (Genbank accession no. NM_005228.3/NP_005219.2 #21-176, Upstate Biotechnology) was used as a template to produce two mutant EGFR genes (coding for L858R and L861Q) by site-directed mutagenesis. The WT and the two sequence-verified mutants were transferred to a COOH-terminal Flag-tagged retroviral cytomegalovirus promoter-driven mammalian expression vector. The two Tet-On expression vectors, EGFR WT (Tet-On) and EGFRvIII (Tet-On), which were COOH-terminally Flag tagged, were generously provided by Dr. Abhijit Guha (University of Toronto, Toronto, Ontario, Canada).
(§3) Transient transfections of Lx-1 cells were done using Lipofectamine 2000 (Invitrogen) according to the manufacturer's protocol. For transfections of the WT, L858R, and L861Q constructs, 1 μg plasmid DNA was used for each transfection (each well of a 12-well plate). […]
(§4) For the EGFR phosphorylation ELISA, Reacti-Bind streptavidin-coated plates (Pierce) were coated with 2 μg/mL biotin-conjugated anti-Flag antibody (Sigma). […] Horseradish peroxidase activity was determined by reading the plates in a Victor2 plate reader following addition of the ELISA Femto substrate.

[5] = biological target: EGFR Variant III (pTet-On/Lx-1) (Homo sapiens, UniProt P00533, DELINS30-297G); assay: as above
Text: as §2, §3, §4

T1 sequence (Q01959 whole entry): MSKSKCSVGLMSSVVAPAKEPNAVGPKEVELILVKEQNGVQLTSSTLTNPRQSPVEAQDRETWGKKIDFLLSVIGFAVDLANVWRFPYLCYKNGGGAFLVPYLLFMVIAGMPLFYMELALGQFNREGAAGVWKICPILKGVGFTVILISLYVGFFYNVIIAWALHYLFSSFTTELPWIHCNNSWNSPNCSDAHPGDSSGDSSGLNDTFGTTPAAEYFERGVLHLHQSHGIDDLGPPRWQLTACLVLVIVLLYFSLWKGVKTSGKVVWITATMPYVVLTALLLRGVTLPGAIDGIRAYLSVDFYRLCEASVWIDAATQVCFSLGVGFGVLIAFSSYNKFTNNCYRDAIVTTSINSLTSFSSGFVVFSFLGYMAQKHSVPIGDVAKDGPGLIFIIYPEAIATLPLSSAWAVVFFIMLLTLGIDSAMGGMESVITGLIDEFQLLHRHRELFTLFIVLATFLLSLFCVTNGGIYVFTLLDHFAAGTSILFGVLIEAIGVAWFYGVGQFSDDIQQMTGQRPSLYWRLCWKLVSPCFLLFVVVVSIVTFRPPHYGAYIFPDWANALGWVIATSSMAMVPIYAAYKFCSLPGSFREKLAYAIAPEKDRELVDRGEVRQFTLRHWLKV

COc1cc2c(Nc3ccc(Cl)c(Cl)c3F)ncnc2cc1OC[C@@H]1C[C@@H]2CN(C)C[C@@H]2C1 [XL-647, N-(3,4-dichloro-2-fluorophenyl)-7-({[(3aR,5r,6aS)-2-methyloctahydrocyclopenta[c]pyrrol-5-yl]methyl}oxy)-6-(methyloxy)quinazolin-4-amine]
Inhibition, 10 μM XL-647 (Adenosine, Non-selective): 47.89% | IC50 (Dopamine Transporter): 2480 nM | inhibition at 10 µM (Dopamine Transporter; read-out: Inhibition, 10 μM XL-647): 87.1% | inhibition at 10 µM (GABA-B): -1.19% | Inhibition, 10 μM XL-647 (Sigma, Non-selective): 50.90% | inhibition at 10 µM (Calcium Channel, Type N): 16.8% | Inhibition, 10 μM XL-647 [1]: 17.02% | Inhibition, 10 μM XL-647 (Sodium, Site 2): 88.06% | inhibition at 10 µM (Thromboxane A2 (Human)): 1.51% | inhibition at 10 µM (Angiotensin II, AT2): 16.6% | inhibition at 10 µM (Endothelin, ET-B (Human)): -13.6% | Inhibition, 10 μM XL-647 [2]: 17.02% | IC50 (Flt1): 56.5 ± 15.5 nM | IC50 (Tie-2): 54 ± 13.4 nM | IC50 (EphB4): 3 nM | IC50 (ErbB2): 552 nM | AUC increase in the presence of food [3]: approximately 18% | Cmax increase in the presence of food [3]: about 5% | subjects with PR [4]: one | subjects with SD as best response [4]: 19 subjects | CYP2D6 inhibition, in words (CYP2D6): inhibitor | IC50 (EGFR WT (pCMV/Lx-1)): 12 nM | IC50 [5]: 74 nM
